# Laboratory results taken from PubChem BioAssay (NCI).
#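 48-hour exposure; five concentrations; linearly interpolated endpoints. TGI: concentration producing complete growth inhibition.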
# What was measured:
# Assay in all cases: NCI tumour cell line growth inhibition, 48 h
# HOP-92 NSCLC = test system: HOP-92 NSCLC
# HCT-15 colon = test system: HCT-15 colon
# NCI-H23 lung = test system: NCI-H23 lung
# UACC-62 melanoma = test system: UACC-62 melanoma
# MOLT-4 leukemia = test system: MOLT-4 leukemia
# EKVX NSCLC = test system: EKVX NSCLC
# TK-10 renal = test system: TK-10 renal
# UACC-257 melanoma = test system: UACC-257 melanoma
# U251 CNS = test system: U251 CNS
# SK-MEL-2 melanoma = test system: SK-MEL-2 melanoma
# NCI-H460 lung = test system: NCI-H460 lung
# SK-OV-3 ovarian = test system: SK-OV-3 ovarian
# M14 melanoma = test system: M14 melanoma
# HS 578T breast = test system: HS 578T breast
# NCI/ADR-RES ovarian = test system: NCI/ADR-RES ovarian
# MALME-3M melanoma = test system: MALME-3M melanoma
# CCRF-CEM leukemia = test system: CCRF-CEM leukemia
# LOX IMVI melanoma = test system: LOX IMVI melanoma
# SN12C renal = test system: SN12C renal
# KM12 colon = test system: KM12 colon
# UO-31 renal = test system: UO-31 renal
# SF-539 CNS = test system: SF-539 CNS
# OVCAR-8 ovarian = test system: OVCAR-8 ovarian
# SF-268 CNS = test system: SF-268 CNS
# DU-145 prostate = test system: DU-145 prostate
# IGROV1 ovarian = test system: IGROV1 ovarian
# SK-MEL-5 melanoma = test system: SK-MEL-5 melanoma
# MCF7 breast = test system: MCF7 breast
# T-47D breast = test system: T-47D breast
# OVCAR-5 ovarian = test system: OVCAR-5 ovarian
# BT-549 breast = test system: BT-549 breast
# MDA-MB-435 = test system: MDA-MB-435
# SF-295 CNS = test system: SF-295 CNS
# A549 NSCLC = test system: A549 NSCLC
# NCI-H226 lung = test system: NCI-H226 lung
# HCT-116 colon = test system: HCT-116 colon
# CAKI-1 renal = test system: CAKI-1 renal
# SW-620 colon = test system: SW-620 colon
# SNB-75 CNS = test system: SNB-75 CNS
# HL-60(TB) leukemia = test system: HL-60(TB) leukemia
# COLO 205 colon = test system: COLO 205 colon
# 786-0 renal = test system: 786-0 renal
# OVCAR-4 ovarian = test system: OVCAR-4 ovarian
# SNB-19 CNS = test system: SNB-19 CNS
# MDA-MB-231 breast = test system: MDA-MB-231 breast
# HCC-2998 colon = test system: HCC-2998 colon
# SK-MEL-28 melanoma = test system: SK-MEL-28 melanoma
# A498 renal = test system: A498 renal
# NCI-H522 lung = test system: NCI-H522 lung
# PC-3 prostate = test system: PC-3 prostate
# HT29 colon = test system: HT29 colon
# ACHN renal = test system: ACHN renal
# RPMI-8226 leukemia = test system: RPMI-8226 leukemia
# OVCAR-3 ovarian = test system: OVCAR-3 ovarian
# K-562 leukemia = test system: K-562 leukemia
smiles,measurement,setting,value
COC1=CC23CCCN2CCc2cc4c(cc2C3C1O)OCO4 (stereo not given),TGI,HOP-92 NSCLC,> 100 µM
same,TGI,HCT-15 colon,> 100 µM
same,TGI,NCI-H23 lung,> 100 µM
same,TGI,UACC-62 melanoma,> 100 µM
same,TGI,MOLT-4 leukemia,> 100 µM
same,TGI,EKVX NSCLC,> 100 µM
same,TGI,TK-10 renal,> 100 µM
same,TGI,UACC-257 melanoma,> 100 µM
same,TGI,U251 CNS,> 100 µM
same,TGI,SK-MEL-2 melanoma,> 100 µM
same,TGI,NCI-H460 lung,> 100 µM
same,TGI,SK-OV-3 ovarian,> 100 µM
same,TGI,M14 melanoma,> 100 µM
same,TGI,HS 578T breast,> 100 µM
same,TGI,NCI/ADR-RES ovarian,> 100 µM
same,TGI,MALME-3M melanoma,> 100 µM
same,TGI,CCRF-CEM leukemia,> 100 µM
same,TGI,LOX IMVI melanoma,> 100 µM
same,TGI,SN12C renal,> 100 µM
same,TGI,KM12 colon,> 100 µM
same,TGI,UO-31 renal,> 100 µM
same,TGI,SF-539 CNS,> 100 µM
same,TGI,OVCAR-8 ovarian,> 100 µM
same,TGI,SF-268 CNS,> 100 µM
same,TGI,DU-145 prostate,> 100 µM
same,TGI,IGROV1 ovarian,> 100 µM
same,TGI,SK-MEL-5 melanoma,54 µM
same,TGI,MCF7 breast,> 100 µM
same,TGI,T-47D breast,> 100 µM
same,TGI,OVCAR-5 ovarian,> 100 µM
same,TGI,BT-549 breast,> 100 µM
same,TGI,MDA-MB-435,> 100 µM
same,TGI,SF-295 CNS,> 100 µM
same,TGI,A549 NSCLC,> 100 µM
same,TGI,NCI-H226 lung,> 100 µM
same,TGI,HCT-116 colon,> 100 µM
same,TGI,CAKI-1 renal,92 µM
same,TGI,SW-620 colon,> 100 µM
same,TGI,SNB-75 CNS,> 100 µM
same,TGI,HL-60(TB) leukemia,83.8 µM
same,TGI,COLO 205 colon,64.2 µM
same,TGI,786-0 renal,> 100 µM
same,TGI,OVCAR-4 ovarian,> 100 µM
same,TGI,SNB-19 CNS,67.8 µM
same,TGI,MDA-MB-231 breast,> 100 µM
same,TGI,HCC-2998 colon,> 100 µM
same,TGI,SK-MEL-28 melanoma,> 100 µM
same,TGI,A498 renal,> 100 µM
same,TGI,NCI-H522 lung,> 100 µM
same,TGI,PC-3 prostate,> 100 µM
same,TGI,HT29 colon,> 100 µM
same,TGI,ACHN renal,60.1 µM
CC(=O)O[C@@H]1[C@@H](O)C2=C3[C@]4(C)[C@@H]1C(C)(C)C(=O)C[C@@H]4[C@]3(O)[C@H](OC(C)=O)[C@@]1(C[C@@H]1C)C2=O,TGI,HOP-92 NSCLC,36.6 µM
same,TGI,HCT-15 colon,31.5 µM
same,TGI,NCI-H23 lung,> 100 µM
same,TGI,UACC-62 melanoma,33.2 µM
same,TGI,RPMI-8226 leukemia,98.4 µM
same,TGI,MOLT-4 leukemia,72.4 µM
same,TGI,EKVX NSCLC,40.7 µM
same,TGI,TK-10 renal,29.7 µM
same,TGI,UACC-257 melanoma,37.2 µM
same,TGI,U251 CNS,40.6 µM
same,TGI,SK-MEL-2 melanoma,68.5 µM
same,TGI,NCI-H460 lung,40.1 µM
same,TGI,SK-OV-3 ovarian,52.6 µM
same,TGI,M14 melanoma,91.9 µM
same,TGI,HS 578T breast,> 100 µM
same,TGI,NCI/ADR-RES ovarian,62.5 µM
same,TGI,MALME-3M melanoma,29.3 µM
same,TGI,CCRF-CEM leukemia,34.1 µM
same,TGI,LOX IMVI melanoma,30.5 µM
same,TGI,SN12C renal,37.1 µM
same,TGI,KM12 colon,30.8 µM
same,TGI,UO-31 renal,33.9 µM
same,TGI,OVCAR-3 ovarian,36.5 µM
same,TGI,SF-539 CNS,56.1 µM
same,TGI,OVCAR-8 ovarian,34.2 µM
same,TGI,SF-268 CNS,81.7 µM
same,TGI,DU-145 prostate,33.8 µM
same,TGI,IGROV1 ovarian,30.9 µM
same,TGI,SK-MEL-5 melanoma,48.8 µM
same,TGI,MCF7 breast,47.4 µM
same,TGI,T-47D breast,36 µM
same,TGI,OVCAR-5 ovarian,54.9 µM
same,TGI,BT-549 breast,37 µM
same,TGI,MDA-MB-435,37.8 µM
same,TGI,SF-295 CNS,42.1 µM
same,TGI,A549 NSCLC,68.4 µM
same,TGI,HCT-116 colon,30.8 µM
same,TGI,K-562 leukemia,> 100 µM
same,TGI,CAKI-1 renal,33.2 µM
same,TGI,SW-620 colon,42.8 µM
same,TGI,SNB-75 CNS,75.4 µM
same,TGI,HL-60(TB) leukemia,49.1 µM
same,TGI,COLO 205 colon,34.2 µM
same,TGI,786-0 renal,32.4 µM
same,TGI,OVCAR-4 ovarian,43.9 µM
same,TGI,SNB-19 CNS,61.5 µM
same,TGI,MDA-MB-231 breast,37.7 µM
same,TGI,HCC-2998 colon,32.7 µM
same,TGI,SK-MEL-28 melanoma,37.1 µM
same,TGI,A498 renal,45.8 µM
same,TGI,NCI-H522 lung,19.2 µM
same,TGI,PC-3 prostate,48.9 µM
same,TGI,ACHN renal,43.4 µM
